{"source": "paper PMC4322620", "about": "(Frontiers in Pharmacology, 2015)", "key": {"thermal pain": {"system": "thermal pain", "details": "mouse, in vivo, ip, 4 mg/kg"}, "acute thermal pain": {"system": "acute thermal pain", "details": "mouse, in vivo, ip, 4 mg/kg"}}}
{"smiles": "CC12CC3CC(C)(C1)CC(N)(C3)C2", "note": "[Memantine]", "values": [{"measurement": "Hot plate (latency to hindlimb response)", "setting": "thermal pain", "result": "7.9 ± 0.49", "unit": "s"}, {"measurement": "Tail flick latency", "setting": "acute thermal pain", "result": "4.836 ± 0.264", "unit": "s"}]}
